By IC50 is commonly meant the concentration that gives 50% inhibition.

Molecules are shown by their SMILES. ≈ marks a conversion by molar mass, not a printed value.

IC50 data for 31 compounds are collected here from ChEMBL document CHEMBL5385899, “Design, synthesis, spectroscopic characterization, single crystal X-ray analysis, in vitro α-amylase inhibition assay, DPPH free radical evaluation and computational studies of naphtho[2,3-d]imidazole-4,9-dione appended 1,2,3-triazoles” (Eur J Med Chem, 2023).

The target in test [1] is T1, Alpha amylase (Homo sapiens, UniProt P0DUB6).
T1 sequence (P0DUB6 whole entry): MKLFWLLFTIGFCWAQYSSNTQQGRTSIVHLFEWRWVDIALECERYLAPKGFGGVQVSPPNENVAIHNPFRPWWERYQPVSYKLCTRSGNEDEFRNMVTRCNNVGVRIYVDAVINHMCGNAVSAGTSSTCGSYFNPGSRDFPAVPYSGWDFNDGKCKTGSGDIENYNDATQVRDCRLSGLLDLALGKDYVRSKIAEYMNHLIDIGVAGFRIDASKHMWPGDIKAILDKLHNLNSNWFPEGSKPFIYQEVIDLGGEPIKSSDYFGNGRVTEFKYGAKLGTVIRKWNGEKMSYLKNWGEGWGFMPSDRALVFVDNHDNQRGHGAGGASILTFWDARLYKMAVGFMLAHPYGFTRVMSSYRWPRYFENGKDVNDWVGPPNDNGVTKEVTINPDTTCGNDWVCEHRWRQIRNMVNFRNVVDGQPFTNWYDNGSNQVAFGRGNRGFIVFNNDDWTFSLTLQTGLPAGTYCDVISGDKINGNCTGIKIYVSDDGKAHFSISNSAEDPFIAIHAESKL
Description: Inhibition of alpha amylase (unknown origin) using starch as substrate preincubated for 30 mins followed by substrate addition and measured after 30 mins by absorbance based analysis.

Test [2] is described as follows: Antioxidant activity assessed as DPPH radical scavenging activity incubated for 30 mins under dark condition. It counts as functional. For orientation: The DPPH test is a chemical assay of radical scavenging.

In the case of `O=C1c2ccccc2C(=O)c2c1nc(-c1ccc(F)cc1)n2Cc1cn(-c2ccc(F)cc2)nn1`, the values for the IC50 in test [1] and in test [2] were 22.04 µg/mL (≈ 47.2 µM) and 9.57 µg/mL (≈ 20.5 µM), respectively.

For the compound `COc1ccc(-c2nc3c(n2Cc2cn(-c4ccc(OC)cc4)nn2)C(=O)c2ccccc2C3=O)cc1`, the results for the IC50 in test [1] and in test [2] were 25.49 µg/mL (≈ 51.9 µM) and 9.55 µg/mL (≈ 19.4 µM), respectively.

Take `COc1ccc(-n2cc(Cn3c(-c4ccc(F)cc4)nc4c3C(=O)c3ccccc3C4=O)nn2)cc1`: the figures for the IC50 in test [1] and in test [2] were 19.87 µg/mL (≈ 41.4 µM) and 10.84 µg/mL (≈ 22.6 µM), respectively.

Take `COc1ccc(-c2nc3c(n2Cc2cn(-c4ccc(F)cc4)nn2)C(=O)c2ccccc2C3=O)c(OC)c1`: the half-inhibitory concentration (IC50) is 23.81 µg/mL (≈ 46.7 µM) in test [1] and 9.92 µg/mL (≈ 19.5 µM) in test [2].

As for `COc1ccc(-c2nc3c(n2Cc2cn(-c4ccc(C)cc4)nn2)C(=O)c2ccccc2C3=O)cc1`, the IC50 in test [1] worked out at 24.58 µg/mL (≈ 51.7 µM); in test [2], 10.14 µg/mL (≈ 21.3 µM).

Turning to `COc1cccc(-c2nc3c(n2Cc2cn(-c4ccc(C)cc4)nn2)C(=O)c2ccccc2C3=O)c1`, the IC50 in test [1] was determined as 18.42 µg/mL (≈ 38.7 µM); in test [2], 9.5 µg/mL (≈ 20 µM).

Consider `COc1ccc(-c2nc3c(n2Cc2cn(-c4ccccc4)nn2)C(=O)c2ccccc2C3=O)c(OC)c1OC`, for which the IC50 in test [1] is 18.51 µg/mL (≈ 35.5 µM); in test [2] it was 9.63 µg/mL (≈ 18.5 µM).

Turning to `COc1ccc(-c2nc3c(n2Cc2cn(-c4ccc(F)cc4)nn2)C(=O)c2ccccc2C3=O)c(OC)c1OC`, the IC50 was 23.94 µg/mL (≈ 44.4 µM) in test [1] and 10.41 µg/mL (≈ 19.3 µM) in test [2].

For the compound `COc1ccc(-c2nc3c(n2Cc2cn(-c4ccc([N+](=O)[O-])cc4)nn2)C(=O)c2ccccc2C3=O)c(OC)c1`, the IC50 was found to be 20.24 µg/mL (≈ 37.7 µM) in test [1] and 10.07 µg/mL (≈ 18.8 µM) in test [2].

As for `CCCCn1cc(Cn2c(-c3cccc(OC)c3)nc3c2C(=O)c2ccccc2C3=O)nn1`, the half-inhibitory concentration (IC50) was found to be 21.11 µg/mL (≈ 47.8 µM) in test [1] and 9.82 µg/mL (≈ 22.2 µM) in test [2].

As to `COc1ccc(-c2nc3c(n2Cc2cn(-c4ccc(C)cc4)nn2)C(=O)c2ccccc2C3=O)c(OC)c1OC`, the IC50 in test [1] stood at 22.87 µg/mL (≈ 42.7 µM); in test [2] it was 10.19 µg/mL (≈ 19 µM).

Regarding `COc1ccc(-c2nc3c(n2Cc2cn(-c4ccc([N+](=O)[O-])cc4)nn2)C(=O)c2ccccc2C3=O)c(OC)c1OC`, the values for the IC50 in test [1] and in test [2] were 18.11 µg/mL (≈ 32 µM) and 10.1 µg/mL (≈ 17.8 µM), respectively.

Consider `O=C1c2ccccc2C(=O)c2c1nc(-c1ccc(F)cc1)n2Cc1cn(-c2ccccc2)nn1`, for which the IC50 in test [1] was 26.01 µg/mL (≈ 57.9 µM); in test [2], 10.32 µg/mL (≈ 23 µM).

As to `O=C1c2ccccc2C(=O)c2c1nc(-c1ccc(F)cc1)n2Cc1cn(-c2ccc([N+](=O)[O-])cc2)nn1`, the figures for the IC50 in test [1] and in test [2] were 18.63 µg/mL (≈ 37.7 µM) and 9.69 µg/mL (≈ 19.6 µM), respectively.

As for `CCCCn1cc(Cn2c(-c3ccc(F)cc3)nc3c2C(=O)c2ccccc2C3=O)nn1`, the IC50 in test [1] was 19.72 µg/mL (≈ 45.9 µM); in test [2] it was 9.41 µg/mL (≈ 21.9 µM).

For the compound `COc1cccc(-c2nc3c(n2Cc2cn(-c4ccccc4)nn2)C(=O)c2ccccc2C3=O)c1`, the IC50 in test [1] stood at 25.07 µg/mL (≈ 54.3 µM); in test [2] it was 10.05 µg/mL (≈ 21.8 µM).

`CCCCn1cc(Cn2c(-c3ccc(OC)c(OC)c3OC)nc3c2C(=O)c2ccccc2C3=O)nn1`: the IC50 in test [1] turned out to be 23.49 µg/mL (≈ 46.8 µM); in test [2], 9.23 µg/mL (≈ 18.4 µM).

For `COc1ccc(-c2nc3c(n2Cc2cn(-c4ccc(C)cc4)nn2)C(=O)c2ccccc2C3=O)c(OC)c1`, the IC50 in test [1] was found to be 21.71 µg/mL (≈ 42.9 µM); in test [2], 11.19 µg/mL (≈ 22.1 µM).

With `COc1cccc(-c2nc3c(n2Cc2cn(-c4ccc(F)cc4)nn2)C(=O)c2ccccc2C3=O)c1`, the IC50 in test [1] stood at 18.41 µg/mL (≈ 38.4 µM); in test [2] it was 9.3 µg/mL (≈ 19.4 µM).

`CCCCn1cc(Cn2c(-c3ccc(OC)cc3)nc3c2C(=O)c2ccccc2C3=O)nn1`: the results for the IC50 in test [1] and in test [2] were 24.25 µg/mL (≈ 54.9 µM) and 10.76 µg/mL (≈ 24.4 µM), respectively.

`COc1ccc(-c2nc3c(n2Cc2cn(-c4ccc([N+](=O)[O-])cc4)nn2)C(=O)c2ccccc2C3=O)cc1`: the IC50 stood at 18.62 µg/mL (≈ 36.8 µM) in test [1] and 10.88 µg/mL (≈ 21.5 µM) in test [2].

Take `COc1ccc(-c2nc3c(n2Cc2cn(-c4ccccc4)nn2)C(=O)c2ccccc2C3=O)c(OC)c1`: the figures for the 50% inhibitory concentration (IC50) in test [1] and in test [2] were 25.44 µg/mL (≈ 51.8 µM) and 11.09 µg/mL (≈ 22.6 µM), respectively.

`COc1ccc(-n2cc(Cn3c(-c4ccc(OC)c(OC)c4OC)nc4c3C(=O)c3ccccc3C4=O)nn2)cc1`: the values for the IC50 in test [1] and in test [2] were 17.83 µg/mL (≈ 32.3 µM) and 8.99 µg/mL (≈ 16.3 µM), respectively.

Take `COc1ccc(-c2nc3c(n2Cc2cn(-c4ccc(F)cc4)nn2)C(=O)c2ccccc2C3=O)cc1`: the IC50 turned out to be 24.19 µg/mL (≈ 50.5 µM) in test [1] and 10.58 µg/mL (≈ 22.1 µM) in test [2].

Take `COc1ccc(-n2cc(Cn3c(-c4cccc(OC)c4)nc4c3C(=O)c3ccccc3C4=O)nn2)cc1`: the IC50 in test [1] stood at 22.73 µg/mL (≈ 46.2 µM); in test [2], 9.8 µg/mL (≈ 19.9 µM).

With `Cc1ccc(-n2cc(Cn3c(-c4ccc(F)cc4)nc4c3C(=O)c3ccccc3C4=O)nn2)cc1`, the IC50 in test [1] was 24.08 µg/mL (≈ 52 µM); in test [2], 9.61 µg/mL (≈ 20.7 µM).

For `COc1cccc(-c2nc3c(n2Cc2cn(-c4ccc([N+](=O)[O-])cc4)nn2)C(=O)c2ccccc2C3=O)c1`, the IC50 worked out at 21.18 µg/mL (≈ 41.8 µM) in test [1] and 9.2 µg/mL (≈ 18.2 µM) in test [2].

As for `CCCCn1cc(Cn2c(-c3ccc(OC)cc3OC)nc3c2C(=O)c2ccccc2C3=O)nn1`, the IC50 in test [1] came to 20.64 µg/mL (≈ 43.8 µM); in test [2] it was 10.26 µg/mL (≈ 21.8 µM).

Take `COc1ccc(-n2cc(Cn3c(-c4ccc(OC)cc4OC)nc4c3C(=O)c3ccccc3C4=O)nn2)cc1`: the IC50 in test [1] worked out at 19.3 µg/mL (≈ 37 µM); in test [2], 10.65 µg/mL (≈ 20.4 µM).

Consider `COc1ccc(-c2nc3c(n2Cc2cn(-c4ccccc4)nn2)C(=O)c2ccccc2C3=O)cc1`, for which the IC50 in test [1] was found to be 20.73 µg/mL (≈ 44.9 µM); in test [2], 10.15 µg/mL (≈ 22 µM).

As for `Cc1cc(C(C)(C)C)c(O)c(C(C)(C)C)c1` [BUTYLATED HYDROXYTOLUENE], in test [2], the IC50 came to 9.41 µg/mL (≈ 42.7 µM).
